Key:
[1] = system: laser-induced CNV in Cynomolgus monkeys; assay: Laser-induced CNV model in Cynomolgus monkeys (wet AMD model); type: in vivo, Cynomolgus monkey; details: 2 mg Angio-3, 2 mg and 4 mg PeptideQ, 2 mg Eylea, single IVT
Description: FIGS. 25A, 25B, 25C, 25D, 25E, and 25F show the results of testing in a laser-induced chorodial neovascularization (CNV) model in Cynomolgus moneys developed as an experimental model of wet AMD. FIG. 25A is a schematic of the study design. FIG. 25B are representative fundus fluorescein angiography (FFA) images of all groups. FIG. 25C is a graph showing change in mean lesion grade of the eye in monkeys treated with a single dose 2 mg of Angio-3, dose 2 mg of anti-VEGF (Eylea), 2 mg of peptide (Q2) and 4 mg of peptide (Q4) and control. […] FIG. 25E is a graph of laser area quantified from the FFA images by ImageJ software. FIG. 25F are graphs of laser volume quantified from PS-OCT images by ImageJ software.
A laser-induced choroidal neovascularization (CNV) model was developed and validated in Cynomolgus monkeys as experimental model of wet AMD. […] The development of active CNV was assessed by fluorescein angiography, at Day 14 the baseline degree of neovascularization and leakiness were measured and the final fluorescein angiography assessment was performed on Day 28. Leakage area was quantified by ImageJ software. The laser volume was quantified by Spectralis-Heidelberg software using SD-OCT images.

[2] = system: laser-induced CNV in C57/BL6J (B6J) wild type mice; assay: Laser-induced choroidal neovascularization (CNV) model in mice, area of leakage by FFA; type: in vivo; details: for Area of Leakage (mean) Week 1 / Area of Leakage (mean) Week 4: laser-induced CNV mice; for % Reduction (area of leakage): vehicle control = 0%
Description: FIG. 3A is a schematic of the experimental design on the efficacy of Angio-3 in a laser-induced choroidal neovascularization (CNV) model in mice (B6J WT mice). FIG. 3B are FFA images of baseline and at different time points post treatment. IV single injection of 100 μL of Angio-3 (25 mg/Kg Bwt) was given at Day 0 (prevention mode) and 4 days after laser (regression mode) and followed for 10 weeks. FIG. 3C is a graph showing the area of leakage by each eye for various groups. FIG. 3D are graphs of the mean area of leakage of all batches for each group. […] The attenuation retinal vascularization was better than scrambled peptide. n=6 eyes per batch; n=3 batches. Values are expressed as means±s.e.m., **P<0.01, *P<0.05, student's t-test. FIG. 3E is a graph of the result of the Retinal Function Test that measures ERG changes in Angio-3 treated and control.
FIG. 4A is a schematic of the experimental design on the efficacy of Angio-3 by IVT administration. […]
FIG. 11 A are FFA images of baseline and at different time points post treatment. Mice received single IVT injection of Angio-3 (at a dose of 1 μg in 1 μl or 100 ng in 1 μl), and chemically modified Angio-3 peptides Pep-N (at doses of 5 μg in μl; 1 μg in μl; and 100 ng in 1 μl, respectively) and Pep-Q peptides (at doses of 5 μg in μl; 1 μg in μl; and 100 ng in 1 μl, respectively). FIG. 11 B is a graph of the area of leakage by each eye. Single dose attenuates retinal angiogenesis in laser-induced mice CNV model via IVT route till 4 weeks. […] Eylea is the positive control. n=18 eyes per group; Values are expressed as means±s.e.m. n=3 independent experiment, **P<0.01, *P<0.05, student's t-test.
Laser induced choridal neo-vascularization (CNV) in C57/BL6J (B6J) wild type mice (n=90).
In B6J mice, single injection of 100 μl volume at 25 mg/kg Bwt concentration Angio-3 was injected via intravenous (i/v) route and this was tested in both Preventive mode (before laser) and Regression mode (4 days after laser). […]
Angio-3 was also injected via intravitreal (IVT) route, single injection of 1 μl volume at 2 different doses; 1 μg (High dose) and 100 ng (Low dose).
4 laser photocoagulation sites were placed concentrically around the optic disc of both eyes to induce CNVs. A diode laser (810 nm) was used with a relative potency scale of 120 mW for mice and 250 mW for rats, an exposure time of 0.05 s, and a spot size of […]. Laser spots were focused with crystal covers to avoid laser beam dispersion. Bubble formation was confirmed the rupture of Bruch's membrane.
Fundus photography and fundus fluorescein angiography (FFA) was imaged using a MICRON IV fundus camera (Phoenix Laboratories USA). For FFA, animals were intraperitoneally injected with 10% sodium fluorescein at a dose of 0.01 ml per 5-6 gm body weight.
In B6J mice, single intravitreous (IVT) injection of 100 ng, 1 μg, 5 μg PEP-Q, PEP-N (modified Angio-3), Angio-3 and Eylea were executed and this was tested in Prevention mode (before laser) Method of Llser induced CNV model and injection was described as above.

[3] = 100 ng single IVT, prevention mode
[4] = 1 μg single IVT, prevention mode
[5] = 5 μg single IVT, prevention mode

Eylea: Eylea (anti-VEGF), positive control; clinical compound [reference compound]
comparative efficacy between treatment groups [1]: superior efficacy as compared to test peptides | Area of Leakage (mean) Week 1 [2, 3]: 10273.37 | Area of Leakage (mean) Week 4 [2, 3]: 3433.52 | % Reduction (area of leakage) ([2]; 100 ng single IVT): 28.40% | Area of Leakage (mean) Week 1 [2, 4]: 12502.09 | Area of Leakage (mean) Week 4 [2, 4]: 3005.85 | % Reduction (area of leakage) ([2]; 1 μg single IVT): 37.77% | Area of Leakage (mean) Week 1 [2, 5]: 11724.39 | Area of Leakage (mean) Week 4 [2, 5]: 1834.08 | % Reduction (area of leakage) ([2]; 5 μg single IVT): 46.17% | choroidal angiogenesis ([2]; B6J mice, single intravitreal injection at dose 100 ng, 1 g, and 5 μg, prevention mode): superior efficacy that is similar to PEP-Q and PEP-N

— US11266710B2, “Angio-3 for treatment of retinal angiogenic diseases” (SINGAPORE HEALTH SERVICES PTE LTD, priority 2017, dated 2022)
